{"source": "paper PMC6149824", "about": "“Design and Synthesis of New Benzothiazole Compounds as Selective hMAO-B Inhibitors” (Molecules : A Journal of Synthetic Chemistry and Natural …, 2017)", "key": {"hMAO-A": {"target": "T1, hMAO-A (Homo sapiens, UniProt P21397)", "T1 sequence (P21397 1-527)": "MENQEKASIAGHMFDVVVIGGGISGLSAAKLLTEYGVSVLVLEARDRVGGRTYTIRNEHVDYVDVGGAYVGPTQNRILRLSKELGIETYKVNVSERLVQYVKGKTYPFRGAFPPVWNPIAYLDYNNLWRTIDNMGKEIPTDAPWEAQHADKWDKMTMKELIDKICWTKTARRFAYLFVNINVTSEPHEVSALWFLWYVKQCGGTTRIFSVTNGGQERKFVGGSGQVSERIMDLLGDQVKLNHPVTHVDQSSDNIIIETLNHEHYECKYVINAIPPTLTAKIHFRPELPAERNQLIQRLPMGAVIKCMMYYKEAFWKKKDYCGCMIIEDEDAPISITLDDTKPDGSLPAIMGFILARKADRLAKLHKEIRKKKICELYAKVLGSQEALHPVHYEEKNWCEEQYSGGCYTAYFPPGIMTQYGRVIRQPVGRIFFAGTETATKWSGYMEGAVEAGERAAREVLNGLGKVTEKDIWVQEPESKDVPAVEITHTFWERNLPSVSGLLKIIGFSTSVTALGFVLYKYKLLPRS", "test": "in vitro fluorometric hMAO-A inhibition assay (Amplex Red)", "assay_type": "biochemical", "conditions": "read-out: MAO A Inhibition %", "experimental": "The in vitro fluorometric enzymatic assay, allowing to sensitively detect monoamine oxidase activity, was applied to investigate hMAO-A and hMAO-B inhibitory potential of compounds 3a–3j. The method was performed in two steps, as previously described. […]\nAn enzyme inhibition assay was performed according to our recent study. The inhibitor (20 μL/well) and hMAO-A (100 μL/well) or hMAO-B solution (100 μL/well) was added to the fine black-bottom 96-well microtiter plate and the mixture was incubated at 37 °C for 30 min. After the incubation period, the reaction was started by adding a working solution (100 μL/well) ([…] Amplex Red reagent, 1 U/mL horseradish peroxidase and 1 mM p-tyramine) and all pipetting processes were performed using a Biotek Precision XS robotic system (BioTek Instruments, Winooski, VT, USA).\nThe production of H2O2 and, subsequently, of resorufin was quantified at 37 °C in a BioTek-Synergy H1 microplate reader based on the fluorescence generated (excitation, 535 nm, emission, 587 nm) over a 15 min period, in which the fluorescence increased linearly. Control experiments were carried out simultaneously by replacing the inhibitor solution with 2% DMSO (20 μL). In order to check the probable inhibitory effect of inhibitors on horseradish peroxidase, a parallel reading was achieved by replacing enzyme solutions with 3% H2O2 solution (20 mM 100 μL/well). In addition, the probable capacity of the inhibitors to modify the fluorescence generated in the reaction mixture due to non-enzymatic inhibition was determined by mixing inhibitor and working solutions.\nThe specific fluorescence emission (used to obtain the final results) was calculated after subtraction of the background activity, which was determined from vials containing all components except the hMAO isoforms, which were replaced by phosphate buffer (100 μL/well). Blank, control and all concentrations of inhibitors were analyzed in quadruplicate and inhibition percent was calculated by using following equation: % Inhibition=(FCt2−FCt1)−(FIt2−FIt1)/FCt2−FCt1×100 where FCt2 is the fluorescence of a control well measured at t2 time; FCt1 is the fluorescence of a control well measured at t1 time; FIt2 is the fluorescence of an inhibitor well measured at t2 time; and FIt1 is the fluorescence of an inhibitor well measured at t1 time.\nThe IC50 values were calculated from a dose-response curve obtained by plotting the percentage inhibition versus the log concentration with the use of GraphPad PRISM software (version 5.0, GraphPad Software Inc., La Jolla, CA, USA)."}, "hMAO-B": {"target": "T2, hMAO-B (Homo sapiens, UniProt P27338)", "T2 sequence (P27338 1-520)": "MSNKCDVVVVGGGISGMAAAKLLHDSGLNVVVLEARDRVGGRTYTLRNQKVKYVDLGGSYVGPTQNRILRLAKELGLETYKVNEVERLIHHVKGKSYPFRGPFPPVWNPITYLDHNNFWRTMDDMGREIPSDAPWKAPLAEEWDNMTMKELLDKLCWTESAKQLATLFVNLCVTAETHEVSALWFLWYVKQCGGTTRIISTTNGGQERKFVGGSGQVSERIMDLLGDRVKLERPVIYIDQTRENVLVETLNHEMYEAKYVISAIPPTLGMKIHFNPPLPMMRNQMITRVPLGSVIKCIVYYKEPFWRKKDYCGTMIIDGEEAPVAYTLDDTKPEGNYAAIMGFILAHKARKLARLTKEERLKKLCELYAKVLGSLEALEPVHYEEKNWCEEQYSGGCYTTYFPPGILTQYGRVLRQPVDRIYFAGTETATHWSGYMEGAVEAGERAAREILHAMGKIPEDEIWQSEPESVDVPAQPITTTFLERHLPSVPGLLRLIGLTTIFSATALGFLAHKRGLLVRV", "test": "enzyme kinetic studies (Lineweaver-Burk) of hMAO-B inhibition", "assay_type": "biochemical", "experimental": "The mechanism of hMAO-B inhibition was investigated by enzyme kinetic studies. Lineweaver-Burk graphs were used to estimate the type of inhibition. […] The velocity measurements were performed by using different substrate concentrations (20 µM–0.625 µM). The Ki (intercept on the x-axis) value of compound 3e was determined from the secondary plot of the 1/V versus varying concentrations.\nThe Lineweaver-Burk graphics present the inhibition type as a mixed-type, competitive, uncompetitive, or non-competitive. In the mix-typed inhibition, the control and inhibitor lines cross neither x- nor y-axis at the same point. […] There is no crosses between the lines in uncompetitive-type inhibition. […] Thus, it can be declared that the mechanism of hMAO-B inhibition of 3e is non-competitive, clarifying that the inhibitor can bind to either free enzyme or enzyme–substrate complex.\nThe same materials were used in the MAO inhibition assay. […] The solutions of inhibitor (20 μL/well) and enzyme added to the fine black-bottom 96-well microtiter plate and then the mixture was incubated at 37 °C for 30 min. After incubation period, the working solution, including various concentrations (20, 10, 5, 2.5, 1.25, and 0.625 μM) of tyramine (100 μL/well), was added. The increase of the fluorescence (Ex/Em = 535/587 nm) was recorded for 30 min. A parallel experiment was performed without using an inhibitor. All processes were assayed in quadruplicate. Lineweaver-Burk plots were obtained by using Microsoft Office Excel 2013 to analyze the inhibition type. The slopes of the Lineweaver-Burk plots were replotted versus the inhibitor concentration, and the Ki values were determined from the x-axis intercept as −Ki."}}, "data": [{"molecule": "COc1ccc2sc(SCC(=O)NN=Cc3ccc([N+](=O)[O-])s3)nc2c1", "note": "[Compound 3e, 2-((5-Methoxybenzothiazol-2-yl)thio)-N′-((5-nitrothiophen-2-yl)methylene)acetohydrazide]", "values": [{"measurement": "inhibition at 1000 µM", "setting": "hMAO-A; 10^−3 M", "result": 22.1, "unit": "%"}, {"measurement": "inhibition at 100 µM", "setting": "hMAO-A; 10^−4 M", "result": 18.6, "unit": "%"}, {"measurement": "mechanism (type) of hMAO-B inhibition", "setting": "hMAO-B; Lineweaver-Burk plots", "result": "non-competitive"}, {"measurement": "Vmax", "setting": "hMAO-B; inhibitor concentration 2 × IC50", "result": 158.730, "unit": "nmol/min/mg protein"}, {"measurement": "Vmax", "setting": "hMAO-B; inhibitor concentration IC50", "result": 212.766, "unit": "nmol/min/mg protein"}, {"measurement": "Vmax", "setting": "hMAO-B; inhibitor concentration IC50/2", "result": 263.158, "unit": "nmol/min/mg protein"}, {"measurement": "Ki", "setting": "hMAO-B; secondary plot, x-axis intercept, substrate tyramine, read-out: Ki (steady-state inhibition constant) for the inhibition of hMAO-B", "result": 61, "unit": "nM"}, {"measurement": "melting point", "result": "177.2 to 178.6", "unit": "°C"}]}]}
